The NIST ThermoML archive (doi:10.1016/j.jct.2005.02.011)

What was measured:
[1] = xn = mol fraction of the nth substance listed; conditions: 298.15 K, 101.33 kPa, Liquid
[2] = excess molar enthalpy (molar enthalpy of mixing); xn = mol fraction of the nth substance listed; conditions: 298.15 K, 101.33 kPa, Liquid
[3] = 298.15 K; 101.33 kPa; Liquid

COC(F)(F)C(F)(F)C(F)(F)C(F)(F)F [1-methoxy-nonafluorobutane] + COCCOCCO
Conditions | mass density [kg/m3]
[1], x1 = 1 | 1516.5

CCCCOCCO [2-butoxyethan-1-ol] + COC(F)(F)C(F)(F)C(F)(F)C(F)(F)F
Conditions | mass density [kg/m3]
[1], x2 = 0 | 896.25

COC(F)(F)C(F)(F)C(F)(F)C(F)(F)F [1-methoxy-nonafluorobutane] + CCOCCO
Conditions | excess molar enthalpy [kcal/mol] | mass density [kg/m3]
[1], x1 = 0.00503 | – | 929.7
[1], x1 = 0.01079 | – | 934.97
[1], x1 = 0.02102 | – | 944.32
[1], x1 = 0.02987 | – | 952.74
[1], x1 = 0.04002 | – | 961.9
[1], x1 = 0.04998 | – | 970.86
[1], x1 = 0.05985 | – | 979.66
[1], x1 = 0.07003 | – | 988.6
[1], x1 = 0.07976 | – | 997.21
[1], x1 = 0.09179 | – | 1007.4
[1], x1 = 0.09978 | – | 1014.34
[1], x1 = 0.1998 | – | 1094.44
[1], x1 = 0.2999 | – | 1166.16
[1], x1 = 0.3998 | – | 1230.34
[1], x1 = 0.4998 | – | 1288.32
[1], x1 = 0.5999 | – | 1340.92
[1], x1 = 0.6998 | – | 1389.17
[1], x1 = 0.7996 | – | 1433.24
[1], x1 = 0.9003 | – | 1475.39
[1], x1 = 0.9098 | – | 1479.22
[1], x1 = 0.9198 | – | 1482.97
[1], x1 = 0.9304 | – | 1487.24
[1], x1 = 0.9399 | – | 1491.41
[1], x1 = 0.9502 | – | 1495.54
[1], x1 = 0.9587 | – | 1499
[1], x1 = 0.969 | – | 1503.23
[1], x1 = 0.9802 | – | 1507.87
[1], x1 = 0.9901 | – | 1512.09
[1], x1 = 0.9949 | – | 1514.04
[1], x1 = 1 | – | 1516.5
[2], x1 = 0.05001 | 0.0376 | –
[2], x1 = 0.1 | 0.0615 | –
[2], x1 = 0.2 | 0.0937 | –
[2], x1 = 0.3 | 0.117 | –
[2], x1 = 0.4001 | 0.135 | –
[2], x1 = 0.5001 | 0.149 | –
[2], x1 = 0.5501 | 0.153 | –
[2], x1 = 0.6001 | 0.158 | –
[2], x1 = 0.6501 | 0.159 | –
[2], x1 = 0.7 | 0.159 | –
[2], x1 = 0.75 | 0.157 | –
[2], x1 = 0.8 | 0.151 | –
[2], x1 = 0.85 | 0.141 | –
[2], x1 = 0.9 | 0.121 | –
[2], x1 = 0.95 | 0.0866 | –
[2], x1 = 0.9507 | 0.0867 | –
[2], x1 = 0.975 | 0.056 | –

CCCCOCCO [2-butoxyethan-1-ol]
Conditions | mass density [kg/m3]
[3] | 896.25

CCOCCO [2-ethoxyethan-1-ol] + COC(F)(F)C(F)(F)C(F)(F)C(F)(F)F
Conditions | mass density [kg/m3]
[1], x2 = 0 | 924.92

COCCOCCO [2-(2-methoxyethoxy)ethanol]
Conditions | mass density [kg/m3]
[3] | 1015.6

COCCOCCOC [2,5,8-trioxanonane] + COC(F)(F)C(F)(F)C(F)(F)C(F)(F)F
Conditions | mass density [kg/m3]
[1], x2 = 0 | 938.62

COCCOCCOC [2,5,8-trioxanonane]
Conditions | mass density [kg/m3]
[3] | 938.62

COC(F)(F)C(F)(F)C(F)(F)C(F)(F)F [1-methoxy-nonafluorobutane] + COCCOCCOC
Conditions | excess molar enthalpy [kcal/mol] | mass density [kg/m3]
[1], x1 = 0.02464 | – | 954.08
[1], x1 = 0.0497 | – | 969.75
[1], x1 = 0.1001 | – | 1001.04
[1], x1 = 0.1498 | – | 1031.72
[1], x1 = 0.1998 | – | 1062.36
[1], x1 = 0.2496 | – | 1092.61
[1], x1 = 0.2994 | – | 1122.54
[1], x1 = 0.3493 | – | 1152.22
[1], x1 = 0.3998 | – | 1181.93
[1], x1 = 0.4496 | – | 1210.92
[1], x1 = 0.4998 | – | 1239.78
[1], x1 = 0.5495 | – | 1268.27
[1], x1 = 0.5999 | – | 1296.83
[1], x1 = 0.6499 | – | 1324.79
[1], x1 = 0.6993 | – | 1352.36
[1], x1 = 0.7495 | – | 1380.12
[1], x1 = 0.7996 | – | 1407.65
[1], x1 = 0.8498 | – | 1435.09
[1], x1 = 0.8997 | – | 1462.11
[1], x1 = 0.9498 | – | 1489.22
[1], x1 = 0.9749 | – | 1502.87
[1], x1 = 1 | – | 1516.5
[2], x1 = 0.05001 | 0.0399 | –
[2], x1 = 0.1 | 0.066 | –
[2], x1 = 0.15 | 0.081 | –
[2], x1 = 0.2 | 0.0883 | –
[2], x1 = 0.25 | 0.0919 | –
[2], x1 = 0.3 | 0.0915 | –
[2], x1 = 0.35 | 0.0883 | –
[2], x1 = 0.4001 | 0.0839 | –
[2], x1 = 0.5001 | 0.0705 | –
[2], x1 = 0.6001 | 0.0546 | –
[2], x1 = 0.7 | 0.038 | –
[2], x1 = 0.8 | 0.022 | –
[2], x1 = 0.9 | 0.00844 | –
[2], x1 = 0.95 | 0.00265 | –

COCCO [2-methoxyethan-1-ol] + COC(F)(F)C(F)(F)C(F)(F)C(F)(F)F
Conditions | mass density [kg/m3]
[1], x2 = 0 | 960.01

COC(F)(F)C(F)(F)C(F)(F)C(F)(F)F [1-methoxy-nonafluorobutane]
Conditions | mass density [kg/m3]
[3] | 1516.5
